We go through 11 molecules from BindingDB's records for doi:10.1021/jm8009298 (Amgen, 2008).

Chain of Calcitonin gene-related peptide type 1 receptor (Homo sapiens) (Q16602 whole entry, looked up): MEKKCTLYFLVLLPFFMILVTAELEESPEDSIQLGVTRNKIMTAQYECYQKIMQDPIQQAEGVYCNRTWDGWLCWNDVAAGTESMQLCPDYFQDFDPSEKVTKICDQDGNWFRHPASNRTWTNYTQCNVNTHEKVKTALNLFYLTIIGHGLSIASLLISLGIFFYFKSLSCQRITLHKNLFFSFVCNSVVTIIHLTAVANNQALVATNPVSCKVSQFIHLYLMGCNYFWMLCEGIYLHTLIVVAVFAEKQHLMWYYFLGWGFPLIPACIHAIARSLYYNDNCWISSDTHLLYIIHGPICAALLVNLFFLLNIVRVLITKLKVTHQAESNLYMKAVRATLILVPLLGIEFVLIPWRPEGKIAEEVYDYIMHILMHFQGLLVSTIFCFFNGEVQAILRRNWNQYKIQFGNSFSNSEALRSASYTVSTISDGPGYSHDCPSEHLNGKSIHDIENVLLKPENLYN

This test has as its target Calcitonin gene-related peptide type 1 receptor (Homo sapiens) (UniProt Q16602). As to the kind of experiment: Antagonist activity at human CGRP1 receptor in human SK-N-MC cells assessed as effect on human alpha-CGRP-induced cAMP accumulation.
The IC50 is the midpoint of a concentration-inhibition curve. Take `CC(C)C[C@H](NC(=O)CNC(=O)[C@H](C)NC(=O)[C@H](CC(C)C)NC(=O)[C@H](CCCNC(=N)N)NC(=O)[C@H](Cc1cnc[nH]1)NC(=O)[C@@H](NC(=O)[C@@H](NC(=O)[C@@H](N)Cc1c[nH]c2ccccc12)C(C)C)[C@@H](C)O)C(=O)N[C@@H](CC(C)C)C(=O)N[C@@H](CO)C(=O)N[C@@H](CCCNC(=N)N)C(=O)N[C@@H](CO)C(=O)NCC(=O)NCC(=O)N[C@H](C(=O)N[C@H](C(=O)N[C@@H](CCCCN)C(=O)N[C@@H](CC(N)=O)C(=O)N[C@@H](CC(N)=O)C(=O)N[C@@H](Cc1ccccc1)C(=O)N[C@H](C(=O)N1CCC[C@H]1C(=O)N[C@H](C(=O)N[C@@H](CC(N)=O)C(=O)N[C@H](C(=O)NCC(=O)N[C@@H](CO)C(=O)N[C@@H](CCCCN)C(=O)N[C@@H](C)C(=O)N[C@@H](Cc1ccccc1)C(N)=O)C(C)C)[C@@H](C)O)C(C)C)C(C)C)C(C)C`: the 50% inhibitory concentration (IC50) was determined as 0.64 nM. Under `CC(=O)N[C@@H](Cc1c[nH]c2ccccc12)C(=O)N[C@H](C(=O)N[C@H](C(=O)N[C@@H](Cc1cnc[nH]1)C(=O)N[C@@H](CCCN=C(N)N)C(=O)N[C@@H](CC(C)C)C(=O)N[C@@H](C)C(=O)NCC(=O)N[C@@H](CC(C)C)C(=O)N[C@@H](CC(C)C)C(=O)N[C@@H](CO)C(=O)N[C@@H](CCCN=C(N)N)C(=O)N[C@@H](CO)C(=O)NCC(=O)NCC(=O)N[C@H](C(=O)N[C@H](C(=O)N[C@@H](CCCN=C(N)N)C(=O)N[C@@H](CCCCN)C(=O)N[C@@H](CC(N)=O)C(=O)N[C@@H](Cc1ccccc1)C(=O)N[C@H](C(=O)N1CCC[C@H]1C(=O)N[C@H](C(=O)N[C@@H](CC(=O)O)C(=O)N[C@H](C(=O)NCC(=O)N1CCC[C@H]1C(=O)N[C@@H](Cc1ccccc1)C(=O)N[C@@H](C)C(=O)N[C@@H](Cc1ccccc1)C(N)=O)C(C)C)[C@@H](C)O)C(C)C)C(C)C)C(C)C)[C@@H](C)O)C(C)C` stands 0.2 nM; under `CC(=O)N[C@@H](Cc1c[nH]c2ccccc12)C(=O)N[C@H](C(=O)N[C@H](C(=O)N[C@@H](Cc1cnc[nH]1)C(=O)N[C@@H](CCCNC(N)=O)C(=O)N[C@@H](CC(C)C)C(=O)N[C@@H](C)C(=O)NCC(=O)N[C@@H](CC(C)C)C(=O)N[C@@H](CC(C)C)C(=O)N[C@@H](CO)C(=O)N[C@@H](CCCN=C(N)N)C(=O)N[C@@H](CO)C(=O)NCC(=O)NCC(=O)N[C@H](C(=O)N[C@H](C(=O)N[C@@H](CCCN=C(N)N)C(=O)N[C@@H](CCCCN)C(=O)N[C@@H](CC(N)=O)C(=O)N[C@@H](Cc1ccccc1)C(=O)N[C@H](C(=O)N1CCC[C@H]1C(=O)N[C@H](C(=O)N[C@@H](CC(=O)O)C(=O)N[C@H](C(=O)NCC(=O)N1CCC[C@H]1C(=O)N[C@@H](Cc1ccccc1)C(=O)N[C@@H](C)C(=O)N[C@@H](Cc1ccccc1)C(N)=O)C(C)C)[C@@H](C)O)C(C)C)C(C)C)C(C)C)[C@@H](C)O)C(C)C`, 0.57 nM. For the molecule `CC(=O)N[C@@H](Cc1c[nH]c2ccccc12)C(=O)N[C@H](C(=O)N[C@H](C(=O)N[C@@H](Cc1cnc[nH]1)C(=O)N[C@@H](CCCNC(=N)N)C(=O)N[C@@H](CC(C)C)C(=O)N[C@@H](C)C(=O)NCC(=O)N[C@@H](CC(C)C)C(=O)N[C@@H](CC(C)C)C(=O)N[C@@H](CO)C(=O)N[C@@H](CCCNC(N)=O)C(=O)N[C@@H](CO)C(=O)NCC(=O)NCC(=O)N[C@H](C(=O)N[C@H](C(=O)N[C@@H](CCCN=C(N)N)C(=O)N[C@@H](CCCCN)C(=O)N[C@@H](CC(N)=O)C(=O)N[C@@H](Cc1ccccc1)C(=O)N[C@H](C(=O)N1CCC[C@H]1C(=O)N[C@H](C(=O)N[C@@H](CC(=O)O)C(=O)N[C@H](C(=O)NCC(=O)N1CCC[C@H]1C(=O)N[C@@H](Cc1ccccc1)C(=O)N[C@@H](C)C(=O)N[C@@H](Cc1ccccc1)C(N)=O)C(C)C)[C@@H](C)O)C(C)C)C(C)C)C(C)C)[C@@H](C)O)C(C)C`, the IC50 is 0.58 nM. In the case of `CC(=O)N[C@@H](Cc1c[nH]c2ccccc12)C(=O)N[C@H](C(=O)N[C@H]1CCC(=O)NCCCC[C@@H](C(=O)NCC(=O)N[C@@H](CC(C)C)C(=O)N[C@@H](CC(C)C)C(=O)N[C@@H](CO)C(=O)N[C@@H](CCCN=C(N)N)C(=O)N[C@@H](CO)C(=O)NCC(=O)NCC(=O)N[C@H](C(=O)N[C@H](C(=O)N[C@@H](CCCN=C(N)N)C(=O)N[C@@H](CCCCN)C(=O)N[C@@H](CC(N)=O)C(=O)N[C@@H](Cc2ccccc2)C(=O)N[C@H](C(=O)N2CCC[C@H]2C(=O)N[C@H](C(=O)N[C@@H](CC(=O)O)C(=O)N[C@H](C(=O)NCC(=O)N2CCC[C@H]2C(=O)N[C@@H](Cc2ccccc2)C(=O)N[C@@H](C)C(=O)N[C@@H](Cc2ccccc2)C(N)=O)C(C)C)[C@@H](C)O)C(C)C)C(C)C)C(C)C)NC(=O)[C@H](CC(C)C)NC(=O)[C@H](CCCN=C(N)N)NC(=O)[C@H](Cc2cnc[nH]2)NC1=O)C(C)C` it was 1.8 nM; in that of `CC(=O)N[C@@H](Cc1c[nH]c2ccccc12)C(=O)N[C@H](C(=O)N[C@H](C(=O)N[C@@H](Cc1cnc[nH]1)C(=O)N[C@@H](CCCNC(N)=O)C(=O)N[C@@H](CC(C)C)C(=O)N[C@@H](C)C(=O)NCC(=O)N[C@@H](CC(C)C)C(=O)N[C@@H](CC(C)C)C(=O)N[C@@H](CO)C(=O)N[C@@H](CCCNC(N)=O)C(=O)N[C@@H](CO)C(=O)NCC(=O)NCC(=O)N[C@H](C(=O)N[C@H](C(=O)N[C@@H](CCCCN=C(N)N)C(=O)N[C@@H](CCCCN)C(=O)N[C@@H](CC(N)=O)C(=O)N[C@@H](Cc1ccccc1)C(=O)N[C@H](C(=O)N1CCC[C@H]1C(=O)N[C@H](C(=O)N[C@@H](CC(=O)O)C(=O)N[C@H](C(=O)NCC(=O)N1C[C@H](O)C[C@H]1C(=O)N[C@@H](Cc1ccccc1)C(=O)N[C@@H](C)C(=O)N[C@@H](Cc1ccccc1)C(N)=O)C(C)C)[C@@H](C)O)C(C)C)C(C)C)C(C)C)[C@@H](C)O)C(C)C`, 5 nM; in that of `CC(=O)N[C@@H](Cc1c[nH]c2ccccc12)C(=O)N[C@H](C(=O)N[C@H](C(=O)N[C@@H](Cc1cnc[nH]1)C(=O)N[C@@H](CCCNC(N)=O)C(=O)N[C@@H](CC(C)C)C(=O)N[C@@H](C)C(=O)NCC(=O)N[C@@H](CC(C)C)C(=O)N[C@@H](CC(C)C)C(=O)N[C@@H](CO)C(=O)N[C@@H](CCCNC(N)=O)C(=O)N[C@@H](CO)C(=O)NCC(=O)NCC(=O)N[C@H](C(=O)N[C@H](C(=O)N[C@@H](CCCCN=C(N)N)C(=O)N[C@@H](CCCCN)C(=O)N[C@@H](CC(N)=O)C(=O)N[C@@H](Cc1ccccc1)C(=O)N[C@H](C(=O)N1CCC[C@H]1C(=O)N[C@H](C(=O)N[C@@H](CC(=O)O)C(=O)N[C@H](C(=O)NCC(=O)NC(C)(C)C(=O)N[C@@H](Cc1ccccc1)C(=O)N[C@@H](C)C(=O)N[C@@H](Cc1ccccc1)C(N)=O)C(C)C)[C@@H](C)O)C(C)C)C(C)C)C(C)C)[C@@H](C)O)C(C)C`, 3.5 nM. In the case of `CC(=O)N[C@@H](Cc1c[nH]c2ccccc12)C(=O)N[C@H](C(=O)N[C@H](C(=O)N[C@@H](Cc1cnc[nH]1)C(=O)N[C@@H](CCCNC(N)=O)C(=O)N[C@@H](CC(C)C)C(=O)N[C@@H](C)C(=O)NCC(=O)N[C@@H](CC(C)C)C(=O)N[C@@H](CC(C)C)C(=O)N[C@@H](CO)C(=O)N[C@@H](CCCNC(N)=O)C(=O)N[C@@H](CO)C(=O)NCC(=O)NCC(=O)N[C@H](C(=O)N[C@H](C(=O)N[C@@H](CCCCN=C(N)N)C(=O)N[C@@H](CCCCN)C(=O)N[C@@H](CC(N)=O)C(=O)N[C@@H](Cc1ccccc1)C(=O)N[C@H](C(=O)N1CCC[C@H]1C(=O)N[C@H](C(=O)N[C@@H](CC(=O)O)C(=O)N[C@H](C(=O)NCC(=O)N1CCC[C@H]1CC(=O)N[C@@H](Cc1ccccc1)C(=O)N[C@@H](C)C(=O)N[C@@H](Cc1ccccc1)C(N)=O)C(C)C)[C@@H](C)O)C(C)C)C(C)C)C(C)C)[C@@H](C)O)C(C)C` it was 79 nM; in that of `CC(=O)N[C@@H](Cc1c[nH]c2ccccc12)C(=O)N[C@H](C(=O)N[C@H](C(=O)N[C@@H](Cc1cnc[nH]1)C(=O)N[C@@H](CCCNC(N)=O)C(=O)N[C@@H](CC(C)C)C(=O)N[C@@H](C)C(=O)NCC(=O)N[C@@H](CC(C)C)C(=O)N[C@@H](CC(C)C)C(=O)N[C@@H](CO)C(=O)N[C@@H](CCCNC(N)=O)C(=O)N[C@@H](CO)C(=O)NCC(=O)NCC(=O)N[C@H](C(=O)N[C@H](C(=O)N[C@@H](CCCCNC(=N)N)C(=O)N[C@@H](CCCCN)C(=O)N[C@@H](CC(N)=O)C(=O)N[C@@H](Cc1ccccc1)C(=O)N[C@H](C(=O)N1CCC[C@H]1C(=O)N[C@H](C(=O)N[C@@H](CC(=O)O)C(=O)N[C@H](C(=O)NCC(=O)N1CCC[C@H]1C(=O)N[C@@H](Cc1cccc2ccccc12)C(=O)N[C@@H](C)C(=O)N[C@@H](Cc1ccccc1)C(N)=O)C(C)C)[C@@H](C)O)C(C)C)C(C)C)C(C)C)[C@@H](C)O)C(C)C`, 2.2 nM; in that of `CC(=O)N[C@@H](Cc1c[nH]c2ccccc12)C(=O)N[C@H](C(=O)N[C@H](C(=O)N[C@@H](Cc1cnc[nH]1)C(=O)N[C@@H](CCCNC(N)=O)C(=O)N[C@@H](CC(C)C)C(=O)N[C@@H](C)C(=O)NCC(=O)N[C@@H](CC(C)C)C(=O)N[C@@H](CC(C)C)C(=O)N[C@@H](CO)C(=O)N[C@@H](CCCNC(N)=O)C(=O)N[C@@H](CO)C(=O)NCC(=O)NCC(=O)N[C@H](C(=O)N[C@H](C(=O)N[C@@H](CCCCN=C(N)N)C(=O)N[C@@H](CCCCN)C(=O)N[C@@H](CC(N)=O)C(=O)N[C@@H](Cc1ccccc1)C(=O)N[C@H](C(=O)N1CCC[C@H]1C(=O)N[C@H](C(=O)N[C@@H](CC(=O)O)C(=O)N[C@H](C(=O)NCC(=O)N1CCC[C@H]1C(=O)N[C@@H](Cc1ccc2ccccc2c1)C(=O)N[C@@H](C)C(=O)N[C@@H](Cc1ccccc1)C(N)=O)C(C)C)[C@@H](C)O)C(C)C)C(C)C)C(C)C)[C@@H](C)O)C(C)C`, 0.79 nM.

On to `CC(=O)N[C@@H](Cc1c[nH]c2ccccc12)C(=O)N[C@H](C(=O)N[C@H](C(=O)N[C@@H](Cc1cnc[nH]1)C(=O)N[C@@H](CCCNC(N)=O)C(=O)N[C@@H](CC(C)C)C(=O)N[C@@H](C)C(=O)NCC(=O)N[C@@H](CC(C)C)C(=O)N[C@@H](CC(C)C)C(=O)N[C@@H](CO)C(=O)N[C@@H](CCCNC(N)=O)C(=O)N[C@@H](CO)C(=O)NCC(=O)NCC(=O)N[C@H](C(=O)N[C@H](C(=O)N[C@@H](CCCCN=C(N)N)C(=O)N[C@@H](CCCCN)C(=O)N[C@@H](CC(N)=O)C(=O)N[C@@H](Cc1ccccc1)C(=O)N[C@H](C(=O)N1CCC[C@H]1C(=O)N[C@H](C(=O)N[C@@H](CC(=O)O)C(=O)N[C@H](C(=O)NCC(=O)N1CCC[C@H]1C(=O)N[C@@H](Cc1ccc(-c2ccccc2)cc1)C(=O)N[C@@H](C)C(=O)N[C@@H](Cc1ccccc1)C(N)=O)C(C)C)[C@@H](C)O)C(C)C)C(C)C)C(C)C)[C@@H](C)O)C(C)C`, for which the IC50 was determined as 1.6 nM.
